# Publication PMC11477965, “Synthesis and Anti-Liver Fibrosis Research of Aspartic Acid Derivatives” (Molecules, 2024)
# “Also recorded” adds a separate entry of the source. Like-named read-outs stand apart in the source and are kept apart here. Where a SMILES comes first, the peptide text is derived from it.
# Key:
# COL1A1 promoter = COL1A1 promoter luciferase reporter inhibition assay in LX-2 cells; assay type: cell-based, human; conditions: for inhibition at 500 µM: read-out: Inhibitory Rate (%) of COL1A1 promotor; for relative fluorescence unit (RFU) of COL1A1 promotor: mean ± SD, n = 3, Control 124874.7 ± 10750.9;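 as to all read-outs here: Anti-fibrotic screen: luciferase reporter driven by the COL1A1 promoter in human hepatic stellate LX-2 cells, compounds applied in complete medium in 96-well plates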
# Description: A total of 32 target compounds, the lead compound L-Asp, and the positive control epigallocatechin gallate (EGCG), known for its anti-hepatic fibrotic activity [29], were tested for inhibitory effects on COL1A1 promoter activity at a concentration of 0.5 mM.
# The LX-2 cells at 90% confluent were transfected with the plasmid of pGL4.17-COL1A1 promoter using Lipofectamine 2000 (Invitrogen, 11668019, Carlsbad, CA, USA) with Opti-MEM serum-free medium (Gibco, 1930104). After culturing for 6 h, the cells were replaced with a complete medium and seeded in 96-well plates for 24 h. The compound to be tested was prepared using a complete medium and added to the 96-well plate. After 24 h, Bright-Glo Luciferase Assay System (Promega, Madison, WI, USA) was used to detect the activity of COL1A1 promoter and the assaying inhibition rate.
# [1] = SRB cytotoxicity assay in LX-2 cells; assay type: cell-based, human; conditions: human, LX-2 cells, SRB assay
# Description: (§1) Their cytotoxicity in LX-2 cells was assessed across various concentrations using the SRB assay, and the cytotoxic concentrations (CC50) were determined. The selectivity index (SI), calculated as the ratio of CC50 to the […] (IC50), was employed to evaluate the compounds’ effects on the COL1A1 promoter (Table 2).
# (§2) The LX-2 cells were seeded in a 96-well plate when reaching 90% confluent. After 24 h, the compound to be tested was prepared using a complete medium and added to the 96-well plate for 24 h. After washing with PBS, the cells were fixed with 10% (wt/vol) trichloroacetic acid for 1 h, washed with deionized water and dried completely and, after staining with SRB for 20 min, the excess dye was washed with 1% acetic acid (vol/vol) three times. The dye bound to the protein was dissolved with 10 mM Tris base solution and OD values were determined at […].
# LX-2 cells [2] = experiment: SRB cytotoxicity assay in LX-2 cells; assay type: cell-based, human; conditions: CC50 in LX-2 cells / IC50 on COL1A1 promoter
# Description: as §1, §2
# [3] = system: fibro-genic gene expression (fibronectin, COL1A1, TGFβ, α-SMA, CTGF, and TIMP1); experiment: Western blot of fibro-genic proteins in TGFβ1-activated LX-2 cells; assay type: cell-based, human; conditions: TGFβ1 2 ng/mL, 24 h; for expression of fibro-genic genes (western blot): compound 100 μmol/L
# Description: (§3) To evaluate the anti-fibrotic efficacy in vitro, we assessed the downregulatory effects of ten active compounds (3, 4c, 4d, 8a, 9, 28a, 32a, 41, 43 and 45) and L-Asp on fibro-genic gene expression (fibronectin, COL1A1, TGFβ, α-SMA, CTGF, and TIMP1) using western blot analysis. LX-2 cells were activated with TGFβ1 (2 ng/mL) and concurrently treated with each compound (100 μmol/L) for 24 h.
# (§4) After the confluence of LX-2 cells reached 90%, the cells were treated with serum-free medium for 24 h. 2 ng/mL TGFβ1 or 1 μg/mL LPS were used in combination with compounds of different concentrations for 24 h. The samples of cells were lysed in RIPA buffer supplemented with protease inhibitor cocktail (Roche) and separated by SDS-PAGE. After the proteins were transferred to the PVDF membrane, 5% skim milk in TBS-T buffer was used to block them at room temperature for 2 h. Specific primary and secondary antibodies were used to detect the target protein. Finally, the blot was visualized using the Tanon 5200 system (Tanon, Shanghai, China) and the protein expression of GAPDH was used as the internal reference.
# [4] = system: IKKβ-NF-κB signaling pathway; experiment: LPS-induced inflammation in LX-2 cells (western blot); assay type: cell-based, human; conditions: 24 h; for LPS-induced phosphorylation and baseline expression of IKKβ, NF-κB phosphorylation and expression: LPS 1 μg/mL, 50, 100, 200, and 500 μmol/L; for IL-6 expression / inhibition of inflammatory factors: LPS 1 μg/mL; for inhibition of inflammatory factors: 500 μM bands scanned
# Description: Inflammation is crucial in the onset and progression of liver fibrosis, and fibrosis can further exacerbate tissue inflammation. […] To assess the anti-inflammatory effects of Compounds 41 and 8a, LX-2 cells were pre-incubated in serum-free medium for 24 h before LPS stimulation, followed by treatment with different concentrations of the compounds in serum-free medium containing 1 μg/mL LPS for another 24 h. Changes in inflammatory cytokine protein levels were analyzed using western blotting.
# The IKKβ-NF-κB signaling pathway has been closely linked to the severity of liver fibrosis, with IKKβ serving as the primary catalytic subunit responsible for NF-κB activation. Therefore, this study investigated the NF-κB pathway by measuring IKKβ kinase activity. […] To evaluate the effects of the target compounds on LPS-induced inflammatory cytokines, four concentrations (50, 100, 200 and 500 μmol/L) were tested, and the results were analyzed by grayscale scanning of western blot bands using ImageJ software (version 1.53t), with normalization to GAPDH protein levels.
# as §4
# LX-2 cells [5] = experiment: LPS-induced activation of LX-2 cells, fibro-genic proteins (western blot); assay type: cell-based, human; conditions: LPS 1 μg/mL, 50, 100, 200, and 500 μmol/L, 24 h
# Description: Taking the results of Figure 3 and Figure 4 together, it seems that compounds 41 and 8a alleviate inflammation and inhibit liver fibrosis through the IKKβ-NF-κB signaling pathway, as indicated in Figure 5.
# as §4
# [6] = system: mRNA expression of COL1A1, TGFβ1, and MMP2; experiment: RT-qPCR of fibro-genic mRNA in TGFβ1-activated LX-2 cells; assay type: cell-based, human; conditions: TGFβ1 2 ng/mL, 24 h
# Description: as §3
# The LX-2 cells were seeded in a 6-well plate and cultured in a complete medium at 37 °C in a 5% CO2 environment until reaching 90% confluence. After culture without serum medium for 24 h, the cells were treated with 2 ng/mL TGFβ1 or 1 μg/mL LPS and the right concentration of compounds for 24 h. Total RNA was extracted using TRIzol reagent and purified by NucleoSpin RNA Clean-up Kit (Macherey-Nagel, Munich, Germany). Total RNA was reverse-transcribed into […] using a Transcriptor First Strand cDNA Synthesis Kit (Roche, Basel, Switzerland). The relative expression levels of the target gene were determined using a TaqMan probe with an ABI Q3 quantitative real-time PCR system, while GAPDH was utilized as an internal control for mRNA expression. The fold change of target mRNA expression was calculated using Equation 2^−∆∆Ct.
# [7] = Homo sapiens, LX-2, LX-2 cells, read-out: IC50 to inhibit the activity of COL1A1 promoter by 50%
# [8] = Homo sapiens, LX-2 cells, 0.5 mM, 24 h
# [9] = 24 h, read-out: CC50, cytotoxic concentration required to inhibit the growth of LX-2 cells by 50%
SMILES,IC50 (COL1A1 promoter; [7]) [µM],inhibition at 500 µM (COL1A1 promoter; [8]) [%],relative fluorescence unit (RFU) of COL1A1 promotor (COL1A1 promoter; LX-2 cells) [RFU],"CC50 at 24 h [1, 9] [µM]","SI, selectivity index (CC50/IC50) (LX-2 cells [2])",melting point [°C],"inhibition at 500 µM (COL1A1 promoter; Homo sapiens, LX-2, 24 h) [%]","IC50 (COL1A1 promoter; Homo sapiens, LX-2, read-out: IC50 to inhibit the activity of COL1A1 promoter by 50%) [µM]",CC50 at 24 h ([1]; read-out: CC50 in LX-2 cells) [µM],expression of fibro-genic genes (western blot) [3],"LPS-induced phosphorylation and baseline expression of IKKβ, NF-κB phosphorylation and expression [4]",IL-6 expression [4],inhibition of inflammatory factors [4],"protein expression of COL1A1, fibronectin, α-SMA, and CTGF (LX-2 cells [5])","IC50 (COL1A1 promoter; LX-2 cells, read-out: IC50 to inhibit the activity of COL1A1 promoter by 50%) [µM]","protein levels of fibronectin, COL1A1, and α-SMA following TGFβ1 stimulation ([3]; different concentrations)","mRNA expression of COL1A1, TGFβ1, and MMP2 [6]"
"CC[C@@H]1C2C[C@H](O)CC[C@]2(C)C2CC[C@@]3(C)C(CCC3[C@H](C)CCC(=O)N[C@@H](CC(=O)O)C(=O)O)C2[C@@H]1O (stereo partly drawn) [Compound 9, ((4R)-4-((3R,6R,7R,10S,13R)-6-ethyl-3,7-dihydroxy-10,13-dimethylhexadecahydro-1H-cyclopenta[a]phenanthren-17-yl)pentanoyl)-L-aspartic acid]",270 ± 47.9,97.4 ± 3.53,3188.3 ±4407.2,351 ± 19.4,1.30,108.2 to 110.6,,,,,,,,,,,
"CC(C)(C)OC(=O)C[C@H](NC(=O)OCC1c2ccccc2-c2ccccc21)C(=O)NCCO [Compound 3, Tert-butyl (S)-3-((((9H-fluoren-9-yl)methoxy)carbonyl)amino)-4-((2-hydroxyethyl)amino)-4-oxobutanoate]",327 ± 17.1,81.5 ± 5.62,23056.9 ± 7017.3,660 ± 24.6,2.01,93.2 to 95.6,,,,,,,,,,,
"COc1ccc(-c2cnc3c(O[C@@H]4CN[C@@H](C(=O)O)C4)cc(C)nn23)cc1OC [Compound 45, (2R,4S)-4-((3-(3,4-dimethoxyphenyl)-6-methylimidazo [1,2-b]pyridazin-8-yl)oxy)pyrrolidine-2-carboxylic acid]",298 ± 51.7,69.6 ± 8.48,37918.9 ± 10579.6,632 ± 11.2,2.12,,,,,,,,,,,,
"C[C@H](N)C(=O)N[C@@H](CC(=O)O)C(=O)O [Compound 8a, L-alanyl-L-aspartic acid] (H-Ala-Asp-OH)",,,63265.3 ± 16582.4,13900,13.16,,49.3 ± 13.3,1050 ± 111,13000,no significant inhibitory effect,dose-dependent reduction,significantly suppressed,superior inhibitory effects,significantly reducing,,,
"COC(=O)[C@H]1C[C@H](Oc2cc(Cl)nn3c(-c4ccc(OC)c(OC)c4)cnc23)CN1C(=O)OC(C)(C)C [Compound 41, 1-(tert-butyl)-2-methyl-(2R,4S)-4-((6-chloro-3-(3,4-dimethoxyphenyl)imidazo [1,2-b]pyridazin-8-yl)oxy)pyrrolidine-1,2-dicarboxylate]",30,66.7 ± 1.96,41555.6 ± 2445.9,510 ± 51.5,16.68,,,,,significantly suppressed,dose-dependent reduction,significantly suppressed,superior inhibitory effects,significantly reducing; also recorded: potent inhibition,30.6 ± 0.3,"notably inhibited; also recorded: reduced the protein levels of fibronectin, COL1A1, and α-SMA in a dose-dependent manner",markedly decreased
